In patent US20250221966A1, “RXFP1 AGONISTS” (BRISTOL-MYERS SQUIBB COMPANY, priority 2021, published 2025):

Target: T1, human RXFP1 (Homo sapiens, UniProt Q9HBX9)
T1 construct: expressed in transfected cells
T1 sequence (Q9HBX9 1-757): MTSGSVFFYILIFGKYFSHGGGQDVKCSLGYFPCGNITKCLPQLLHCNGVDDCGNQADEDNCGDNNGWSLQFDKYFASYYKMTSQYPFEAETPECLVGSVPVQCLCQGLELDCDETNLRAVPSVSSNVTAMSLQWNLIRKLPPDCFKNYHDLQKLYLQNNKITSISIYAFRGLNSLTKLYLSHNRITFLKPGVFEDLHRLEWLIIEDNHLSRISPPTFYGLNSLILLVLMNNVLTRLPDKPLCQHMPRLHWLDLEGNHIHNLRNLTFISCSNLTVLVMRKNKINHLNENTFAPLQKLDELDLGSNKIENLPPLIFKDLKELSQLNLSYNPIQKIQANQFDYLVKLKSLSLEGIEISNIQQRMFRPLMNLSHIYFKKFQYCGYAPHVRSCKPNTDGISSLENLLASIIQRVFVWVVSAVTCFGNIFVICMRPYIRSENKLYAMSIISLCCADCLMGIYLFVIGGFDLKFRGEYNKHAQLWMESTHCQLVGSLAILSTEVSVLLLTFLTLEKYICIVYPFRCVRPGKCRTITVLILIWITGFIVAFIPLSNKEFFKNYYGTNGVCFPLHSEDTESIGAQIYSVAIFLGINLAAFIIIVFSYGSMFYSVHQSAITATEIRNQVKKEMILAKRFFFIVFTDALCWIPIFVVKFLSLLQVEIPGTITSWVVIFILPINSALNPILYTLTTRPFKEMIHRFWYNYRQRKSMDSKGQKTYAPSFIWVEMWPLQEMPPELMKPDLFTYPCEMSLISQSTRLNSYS
Assay: RXFP1 cAMP assay (hRXFP1 HEK293 cAMP assay, HTRF)
Assay type: cell-based
Conditions: HEK293 cells stably expressing human RXFP1, 30 min at room temperature, read-out: cAMP hRXFP1 HEK293 Assay EC50
How it was run: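 HEK293 cells stably expressing human RXFP1 were suspended in HBSS (Ca/Mg) with 20 mM HEPES, 0.05% BSA and 0.5 mM IBMX, then treated with compounds (0.010 nM–50 μM, 2% DMSO final) for 30 min at room temperature. Intracellular cAMP was measured by HTRF, and potency was derived from 4-parameter logistic fits.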

Row | SMILES | EC50
1 | O=C(N[C@H]1[C@@H](C(=O)Nc2ccc(F)c(C(F)(F)F)c2)[C@H]2CC[C@@H]1/C2=C\C1CC1)c1cc(C2=NOC3CC(CO)CC23)ccc1OCC(F)F (some centres unmarked) [compound 783] | 3.4 nM
2 | COc1ccc(C2CN(C(=O)N3CCC(O)CC3)C2)cc1C(=O)N[C@H]1[C@@H](C(=O)Nc2ccc(F)c(C(F)(F)F)c2)[C@H]2CC[C@@H]1/C2=C\C1CC1 [compound 527] | 22.4 nM
3 | COc1ccc(C2=NOC3CC(O)(C(F)(F)F)CC23)cc1C(=O)N[C@H]1[C@@H](C(=O)NCC(C)(C)C)[C@H]2CC[C@@H]1/C2=C\C1CC1 (some centres unmarked) [compound 862] | 3.4 nM
4 | COc1ccc(C2=NOC3CC(C(O)C(F)(F)F)CC23)cc1C(=O)N[C@H]1[C@@H](C(=O)Nc2ccc(F)c(C(F)(F)F)c2)[C@H]2CC[C@@H]1/C2=C\C1CC1 (some centres unmarked) [compound 853] | 3.6 nM
5 | COc1ccc(N2CCCC2=O)cc1C(=O)N[C@H]1[C@@H](C(=O)Nc2ccc(F)c(C(F)(F)F)c2)[C@H]2CC[C@@H]1/C2=C\C1CC1 [compound 636] | 196 nM
6 | COc1cc(F)c(F)cc1C(=O)N[C@@H]1C2CCC(/C2=C/c2cnoc2)[C@@H]1C(=O)Nc1ccc(F)c(C(F)(F)F)c1 (some centres unmarked) [compound 39] | 88 nM
7 | COc1ccc(C2=NOC3COCC23)cc1C(=O)N[C@H]1[C@@H](C(=O)NC2CCC(C#N)C2)[C@H]2CC[C@@H]1/C2=C\C1CC1 (some centres unmarked) [Example 664] | 367 nM
8 | COc1cc(C)c(C2=NOC3COCC23)cc1C(=O)N[C@H]1[C@@H](C(=O)Nc2ccc(F)c(C(F)(F)F)c2)[C@H]2CC[C@@H]1/C2=C\C1CC1 (single isomer, unassigned) [compound 686] | 653 nM
9 | COc1ccc(C2=NOC3CC(C)(CO)CC23)cc1C(=O)N[C@H]1[C@@H](C(=O)N[C@H](C)C2(C)CC2)[C@H]2CC[C@@H]1/C2=C\c1csc(C(F)(F)F)n1 (some centres unmarked) [compound 915] | 4 nM
10 | COc1ccc(C2CCN(C(=O)C(C)(C)O)C2)cc1C(=O)N[C@@H]1C2CCC(C2=CC2CC2)[C@@H]1C(=O)Nc1ccc(F)c(C(F)(F)F)c1 (some centres unmarked) [compound 555] | 41.4 nM
11 | COc1ccc(C2=NOC3CC(CO)CC23)cc1C(=O)N[C@H]1[C@@H](C(=O)Nc2ccc(F)c(C(F)(F)F)c2)[C@H]2CC[C@@H]1/C2=C\C(F)(F)F (some centres unmarked) [compound 478] | 6.5 nM
12 | COc1ccc(C2=NOC3(CCNC3)C2)cc1C(=O)N[C@H]1[C@@H](C(=O)Nc2ccc(F)c(C(F)(F)F)c2)[C@H]2CC[C@@H]1/C2=C\C1CC1 (some centres unmarked) [compound 593] | 89.8 nM
13 | COc1cc(F)c(F)cc1C(=O)N[C@@H]1C2CCC(C2=C(C)C)[C@@H]1C(=O)Nc1ccnc(C(F)(F)F)c1 (some centres unmarked) [compound 75] | 2600 nM
14 | COc1ccc(N2CCCC(CO)C2)cc1C(=O)NC1C2CCC(/C2=C/C(F)(F)F)C1C(=O)Nc1ccc(F)c(C(F)(F)F)c1 (stereo in doubt) [Example 329, (1R,2R,3R,4R,Z)—N-(4-fluoro-3-(trifluoromethyl)phenyl)-3-(5-(3-(hydroxymethyl)piperidin-1-yl)-2-methoxybenzamido)-7-(2,2,2-trifluoroethylidene)bicyclo[2.2.1]heptane-2-carboxamide] | 4810 nM
15 | COc1ccc(C2=NOC3COCC23)cc1C(=O)N[C@H]1[C@@H](C(=O)NCC2(c3ccccc3)CC2)[C@H]2CC[C@@H]1/C2=C\C1CC1 (some centres unmarked) [compound 572] | 66.4 nM
16 | COc1ccc(C2=NOC3CC(O)(C(F)(F)F)CC23)cc1C(=O)N[C@H]1[C@@H](C(=O)Nc2ccc(F)c(C(F)(F)F)c2)[C@H]2CC[C@@H]1/C2=C\C1CC1 (some centres unmarked) [compound 864] | 3.8 nM
17 | C=C/C=C1\C2CCC1[C@H](C(=O)Nc1ccc(F)c(C(F)(F)F)c1)[C@@H]2NC(=O)c1cc(F)c(F)cc1OC (some centres unmarked) [compound 44] | 26 nM
18 | COc1cc(F)c(F)cc1C(=O)N[C@@H]1C2CCC(/C2=C/C(C)(C)O)[C@@H]1C(=O)Nc1ccc(F)c(C(F)(F)F)c1 (some centres unmarked) [Example 65] | 2000 nM
19 | COc1ccc(-c2ccnc(N3CCOCC3)c2F)cc1C(=O)N[C@@H]1C2CCC(/C2=C/C2CC2)[C@@H]1C(=O)Nc1ccc(F)c(C(F)(F)F)c1 (some centres unmarked) [compound 274] | 16 nM
20 | COc1c(F)cc(C2=NOC(CO)C2)cc1C(=O)N[C@H]1[C@@H](C(=O)Nc2ccc(F)c(C(F)(F)F)c2)[C@H]2CC[C@@H]1/C2=C\CC(O)C(F)(F)F (some centres unmarked) [compound 835] | 3.9 nM
21 | COc1ccc(C2=NOC3(C2)CC(CO)C3)cc1C(=O)N[C@H]1[C@@H](C(=O)Nc2ccc(F)c(C(F)(F)F)c2)[C@H]2CC[C@@H]1/C2=C\C1CC1 (single isomer, unassigned) [compound 711] | 1560 nM
22 | COc1ccc(C2=NOC3COCC23)cc1C(=O)N[C@H]1[C@@H](C(=O)NC2Cc3ccccc3C2)[C@H]2CC[C@@H]1/C2=C\C1CC1 (some centres unmarked) [compound 610] | 132 nM
23 | O=C(NC1CCC1)OC(c1ccc(F)c(-c2ccc(OCCO)c(C(=O)N[C@H]3[C@@H](C(=O)Nc4ccc(F)c(C(F)(F)F)c4)[C@H]4CC[C@@H]3/C4=C\C3CC3)c2)c1)C(F)(F)F (stereo partly drawn) [Example 253, 1-(3′-(((1R,2R,3S,4R,Z)-7-(cyclopropylmethylene)-3-((4-fluoro-3-(trifluoromethyl)phenyl)carbamoyl)bicyclo[2.2.1]heptan-2-yl)carbamoyl)-6-fluoro-4′-(2-hydroxyethoxy)-[1,1′-biphenyl]-3-yl)-2,2,2-trifluoroethyl cyclobutylcarbamate] | 17 nM

Second part, the molecule after the results:

Row | EC50 | SMILES
24 | 2900 nM | COc1cc(F)c(F)cc1C(=O)N[C@@H]1C2CCC(/C2=C/c2cccc(CN3CCOCC3)c2)[C@@H]1C(=O)Nc1ccc(F)c(C(F)(F)F)c1 (some centres unmarked) [compound 70]
25 | 73 nM | CCOC(=O)c1cc2cc(-c3ccc(OC)c(C(=O)N[C@@H]4C5CCC(/C5=C/C(F)(F)F)[C@@H]4C(=O)Nc4ccc(F)c(C(F)(F)F)c4)c3)ccc2[nH]1 (some centres unmarked) [compound 297]
26 | 4380 nM | COc1ccc(-c2cc(C(=O)O)ccc2F)cc1C(=O)N[C@@H]1C2CCC(/C2=C/C2CC2)[C@@H]1C(=O)NC(C)c1nccs1 (some centres unmarked) [compound 309]
27 | 128 nM | COCCOCCOc1ccc(-c2cc(C(=O)O)ccc2F)cc1C(=O)N[C@@H]1C2CCC(/C2=C/c2ccccc2)[C@@H]1C(=O)Nc1ccc(F)c(C(F)(F)F)c1 (some centres unmarked) [Example 199]
28 | 15 nM | COc1cc(F)c(F)cc1C(=O)N[C@@H]1C2CCC(/C2=C/C=C/CCCc2ccccc2)[C@@H]1C(=O)Nc1ccc(F)c(C(F)(F)F)c1 (some centres unmarked) [compound 37]
29 | 32 nM | COc1ccc(-c2ccc(C(=O)O)cc2F)cc1C(=O)N[C@@H]1C2CCC(/C2=C/C(F)(F)F)[C@@H]1C(=O)Nc1ccc(F)c(C(F)(F)F)c1 (some centres unmarked) [compound 293]
30 | 11 nM | COc1ccc(C2=NOC(C(=O)O)C2)cc1C(=O)N[C@@H]1C2CCC(/C2=C/C2CCC2)[C@@H]1C(=O)Nc1ccc(F)c(C(F)(F)F)c1 (some centres unmarked) [compound 387]
31 | 3 nM | COc1ccccc1NC(=O)OC(c1ccc(F)c(-c2ccc(OC)c(C(=O)N[C@@H]3C4CCC(/C4=C/C4CC4)[C@@H]3C(=O)Nc3ccc(F)c(C(F)(F)F)c3)c2)c1)C(F)(F)F (some centres unmarked) [compound 225]
32 | 211 nM | COc1ccc(-c2cc(C(O)C(=O)O)ccc2F)cc1C(=O)NC1C2CCC(/C2=C/C2CCN(Cc3ccc(Cl)cc3)C2)C1C(=O)Nc1ccc(F)c(C(F)(F)F)c1 (centres unmarked) [compound 357]
33 | 19 nM | COc1ccc(-c2cc(CC(=O)O)ccc2F)cc1C(=O)N[C@@H]1C2CCC(/C2=C/c2ccccc2)[C@@H]1C(=O)Nc1ccc(F)c(C(F)(F)F)c1 (some centres unmarked) [compound 187]
34 | 2.5 nM | COc1ccc(-c2ccc(C(CC(=O)O)C(F)(F)F)cc2F)cc1C(=O)N[C@H]1[C@@H](C(=O)Nc2ccc(F)c(C(F)(F)F)c2)[C@H]2CC[C@@H]1/C2=C\C1CC1 (some centres unmarked) [compound 883]
35 | 510 nM | COc1cc(F)c(F)cc1C(=O)N[C@@H]1C2CCC(/C2=C/c2cncnc2)[C@@H]1C(=O)Nc1ccc(F)c(C(F)(F)F)c1 (some centres unmarked) [compound 63]
36 | 13 nM | COc1ccc(-c2cc(C(=O)O)ccc2F)cc1C(=O)N[C@@H]1C2CCC(/C2=C/c2ccccc2)[C@@H]1C(=O)Nc1cccc(S(=O)(=O)C(F)(F)F)c1 (some centres unmarked) [compound 122]
37 | 60 nM | COc1ccc(-c2cc(C(=O)O)ccc2F)cc1C(=O)N[C@@H]1C2CCC(/C2=C/c2cncnc2)[C@@H]1C(=O)Nc1ccc(F)c(C(F)(F)F)c1 (some centres unmarked) [compound 129]
38 | 5 nM | COc1ccc(-c2cc(C(NC(C)=O)C(=O)O)ccc2F)cc1C(=O)N[C@@H]1C2CCC(/C2=C/C2CC2)[C@@H]1C(=O)Nc1ccc(F)c(C(F)(F)F)c1 (some centres unmarked) [Example 182]
39 | 11 nM | COc1ccc(-c2cc(C(OC(C)=O)C(=O)O)ccc2F)cc1C(=O)N[C@@H]1C2CCC(/C2=C/c2cnoc2)[C@@H]1C(=O)Nc1ccc(F)c(C(F)(F)F)c1 (some centres unmarked) [Example 178]
40 | 160 nM | COc1cc(F)c(F)cc1C(=O)N[C@@H]1C2CCC(/C2=C/c2ccccc2F)[C@@H]1C(=O)Nc1ccc(F)c(C(F)(F)F)c1 (some centres unmarked) [compound 54]
41 | 2 nM | COc1ccc(-c2cc(C(OC(=O)Nc3ccccc3)C(F)(F)F)ccc2F)cc1C(=O)N[C@@H]1C2CCC(/C2=C/C2CC2)[C@@H]1C(=O)Nc1ccc(F)c(C(F)(F)F)c1 (single isomer, unassigned) [compound 224]
